In publication PMC5977019, “NMR, Novel Pharmacological and In Silico Docking Studies of Oxyacanthine and Tetrandrine: Bisbenzylisoquinoline Alkaloids Isolated from Berberis glaucocarpa Roots” (Journal of Analytical Methods in Chemistry, 2018):

What was measured:
urease (jack bean) [1] = molecular target: T1, urease (jack bean) (Canavalia ensiformis, UniProt P07374); test: indophenol urease assay (ammonia production, […] nm); format: biochemical
urease (jack bean) [2] = molecular target: T1, urease (jack bean); test: indophenol urease assay (ammonia production, […] nm), standard inhibitor; format: biochemical; conditions: read-out: IC50 ± SEM (μg/mL) (converted)

T1 sequence (P07374 whole entry, looked up): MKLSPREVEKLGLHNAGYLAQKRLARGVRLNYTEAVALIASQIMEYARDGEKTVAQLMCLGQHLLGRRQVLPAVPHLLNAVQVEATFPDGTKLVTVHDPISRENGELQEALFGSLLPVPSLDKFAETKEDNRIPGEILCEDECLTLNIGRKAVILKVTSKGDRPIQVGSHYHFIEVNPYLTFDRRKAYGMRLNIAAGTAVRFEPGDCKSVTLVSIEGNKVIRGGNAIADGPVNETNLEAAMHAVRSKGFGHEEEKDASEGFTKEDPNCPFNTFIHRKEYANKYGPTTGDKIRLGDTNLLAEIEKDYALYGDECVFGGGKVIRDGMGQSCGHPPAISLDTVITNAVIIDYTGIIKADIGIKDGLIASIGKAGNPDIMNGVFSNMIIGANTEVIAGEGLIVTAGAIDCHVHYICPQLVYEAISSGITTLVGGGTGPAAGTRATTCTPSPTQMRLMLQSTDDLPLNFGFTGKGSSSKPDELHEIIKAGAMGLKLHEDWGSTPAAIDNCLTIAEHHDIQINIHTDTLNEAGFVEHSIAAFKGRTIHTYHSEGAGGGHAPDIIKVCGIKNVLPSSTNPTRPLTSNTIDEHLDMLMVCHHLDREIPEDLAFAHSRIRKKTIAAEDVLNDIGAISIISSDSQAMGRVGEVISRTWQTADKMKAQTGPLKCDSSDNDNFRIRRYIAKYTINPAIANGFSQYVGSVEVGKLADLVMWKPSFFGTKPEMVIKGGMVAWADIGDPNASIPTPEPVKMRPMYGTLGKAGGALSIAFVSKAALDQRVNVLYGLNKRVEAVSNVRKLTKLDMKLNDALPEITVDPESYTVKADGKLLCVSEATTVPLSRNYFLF

**Q.** With COc1cc2c3cc1Oc1c(OC)c(OC)cc4c1[C@H](Cc1ccc(cc1)Oc1cc(ccc1O)C[C@H]3N(C)CC2)N(C)CC4 [compound 1, oxyacanthine] as the compound, how does the IC50 (urease (jack bean) [1]) read?
**A.** 10.4 µM

**Q.** Which IC50 (urease (jack bean) [1]; read-out: IC50 ± SEM (μg/mL) (converted)) does the source give for COc1ccc2cc1Oc1ccc(cc1)C[C@H]1c3cc(c(OC)cc3CCN1C)Oc1c(OC)c(OC)cc3c1[C@H](C2)N(C)CC3 [compound 2, tetrandrine] here?
**A.** 8.85 µM

**Q.** Which IC50 (urease (jack bean) [2]) does the source give for NC(N)=S [thiourea] here?
**A.** 215 µM
